Experimental data as given in patent US20170094972A1, “Compounds and Compositions Having Knock-Down Activity Against Insect Pests” (priority 2015, published 2017).

Legend:
Format in all cases: in vivo
Aedes aegypti = assay: 12 well plate knockdown test; settings: 1 h, read-out: Aedes aegypti 1 hour % KD; for pest or weed control at 0.2 ppm: Rate 0.2 PPM; for pest or weed control at 2 ppm: Rate 2 PPM; for pest or weed control at 20 ppm: Rate 20 PPM; for pest or weed control at 200 ppm: Rate 200 PPM
Experimental: (§1) The individual wells of a twelve (12) well tissue culture plates were treated with 100 μl of an ethanol solution containing a test compound at a defined concentration. Once the deposits were dry, five non-blood fed adult female Aedes aegypti or Anopheles stephensi (between two to five day old) were added to each well, and sustained with a 10% sucrose solution in a cotton wool plug. Assessment of the knockdown after 1 hour was carried out. Where multiple replicates of a treatment have been undertaken, the mean of those replicates is reported.

Anopheles stephensi [1] = assay: 12 well plate knockdown test; settings: 1 h, read-out: Anopheles stephensi 1 hour % KD; for pest or weed control at 0.2 ppm: Rate 0.2 PPM; for pest or weed control at 2 ppm: Rate 2 PPM; for pest or weed control at 20 ppm: Rate 20 PPM; for pest or weed control at 200 ppm: Rate 200 PPM
Experimental: as §1

Anopheles stephensi [2] = assay: 6 well plate test, knockdown after 1 hour and mortality after 24 and 48 hours; design: KD: unit not given here; settings: for KD: after 1 hour
Experimental: The individual wells of six (6) well tissue culture plates were treated with […] of an ethanol solution containing a test compound at a defined concentration. Once the deposits were dry, ten non-blood fed adult female Anopheles stephensi (between two to five day old) were added to each well, and sustained with a 10% sucrose solution in a cotton wool plug. Assessment of the knockdown after 1 hour (Tables B1-B10), and mortality after 24 and 48 hours (Tables B1-B4) was carried out.
In case of multiple tests, the mean value is reported.

With `CN(OC(=O)OCc1ccccc1)C(=O)c1cnccc1C(F)(F)F` [I.8] the pest or weed control at 0.2 ppm (Aedes aegypti) was 100%, the pest or weed control at 2 ppm (Aedes aegypti) was 100% and the pest or weed control at 20 ppm (Aedes aegypti) was 100%. The pest or weed control at 200 ppm (Aedes aegypti) was 100%, the pest or weed control at 0.2 ppm (Anopheles stephensi [1]) was 60% and the pest or weed control at 2 ppm (Anopheles stephensi [1]) was 100%. It also gave a pest or weed control at 20 ppm (Anopheles stephensi [1]) of 100% and a pest or weed control at 200 ppm (Anopheles stephensi [1]) of 100%.

`CSCC/C(N)=N\C(=O)c1cnccc1C(F)(F)F` [I.21] was tested, and the pest or weed control at 0.2 ppm (Aedes aegypti) was 0%, the pest or weed control at 2 ppm (Aedes aegypti) was 0% and the pest or weed control at 20 ppm (Aedes aegypti) was 0%. The pest or weed control at 200 ppm (Aedes aegypti) was 100%, the pest or weed control at 0.2 ppm (Anopheles stephensi [1]) was 20% and the pest or weed control at 2 ppm (Anopheles stephensi [1]) was 60%. It also gave a pest or weed control at 20 ppm (Anopheles stephensi [1]) of 100% and a pest or weed control at 200 ppm (Anopheles stephensi [1]) of 100%.

`CC(C#N)NC(=O)c1cnccc1C(F)(F)F` (centres unmarked) [I.11] was tested, and the pest or weed control at 0.2 ppm (Aedes aegypti) was 100%, the pest or weed control at 2 ppm (Aedes aegypti) was 100% and the pest or weed control at 20 ppm (Aedes aegypti) was 100%. The pest or weed control at 200 ppm (Aedes aegypti) was 100%.

`CO/N=C(\C)CNC(=O)c1cnccc1C(F)(F)F` [I.18] gave a pest or weed control at 0.2 ppm (Aedes aegypti) of 40%, a pest or weed control at 2 ppm (Aedes aegypti) of 100% and a pest or weed control at 20 ppm (Aedes aegypti) of 100%. The pest or weed control at 200 ppm (Aedes aegypti) was 100%, the pest or weed control at 0.2 ppm (Anopheles stephensi [1]) was 0% and the pest or weed control at 2 ppm (Anopheles stephensi [1]) was 0%. It also gave a pest or weed control at 20 ppm (Anopheles stephensi [1]) of 0% and a pest or weed control at 200 ppm (Anopheles stephensi [1]) of 40%.

Work on `COCCOC(=O)ON(C(=O)c1cnccc1C(F)(F)F)C(C)C` [I.29] yielded a pest or weed control at 0.2 ppm (Aedes aegypti) of 0%, a pest or weed control at 2 ppm (Aedes aegypti) of 0% and a pest or weed control at 20 ppm (Aedes aegypti) of 0%. For the same compound, the pest or weed control at 200 ppm (Aedes aegypti) was 100%, the pest or weed control at 0.2 ppm (Anopheles stephensi [1]) was 20% and the pest or weed control at 2 ppm (Anopheles stephensi [1]) was 60%. The pest or weed control at 20 ppm (Anopheles stephensi [1]) was 100% and the pest or weed control at 200 ppm (Anopheles stephensi [1]) was 100%.

`CCOCn1c(-c2ccc(Cl)cc2)c(C#N)c(Br)c1C(F)(F)F` [chlorfenapyr] gave a 24 hr mort (Anopheles stephensi [2]; Table B1, 0.0625 ppm alone) of 0.0, a 48 hr mort (Anopheles stephensi [2]; Table B1, 0.0625 ppm alone) of 0.0 and a KD (Anopheles stephensi [2]; Table B1, 0.0625 ppm alone) of 0.0. It also gave a 24 hr mort (Anopheles stephensi [2]; Table B1, 0.125 ppm alone) of 0.0, a 48 hr mort (Anopheles stephensi [2]; Table B1, 0.125 ppm alone) of 0.0 and a KD (Anopheles stephensi [2]; Table B1, 0.125 ppm alone) of 0.0. The 24 hr mort (Anopheles stephensi [2]; Table B1, 0.25 ppm alone) was 0.0, the 48 hr mort (Anopheles stephensi [2]; Table B1, 0.25 ppm alone) was 3.3 and the KD (Anopheles stephensi [2]; Table B1, 0.25 ppm alone) was 0.0. It also gave a 24 hr mort (Anopheles stephensi [2]; Table B1, 0.5 ppm alone) of 0.0, a 48 hr mort (Anopheles stephensi [2]; Table B1, 0.5 ppm alone) of 16.7 and a KD (Anopheles stephensi [2]; Table B1, 0.5 ppm alone) of 0.0. It also gave a 24 hr mort (Anopheles stephensi [2]; Table B1, 1 ppm alone) of 6.7, a 48 hr mort (Anopheles stephensi [2]; Table B1, 1 ppm alone) of 50.0 and a KD (Anopheles stephensi [2]; Table B1, 1 ppm alone) of 0.0. For the same compound, the 24 hr mort (Anopheles stephensi [2]; Table B1, 2 ppm alone) was 40.0, the 48 hr mort (Anopheles stephensi [2]; Table B1, 2 ppm alone) was 90.0 and the KD (Anopheles stephensi [2]; Table B1, 2 ppm alone) was 0.0. For the same compound, the 24 hr mort (Anopheles stephensi [2]; Table B2, 0.0625 ppm alone) was 0.0, the 48 hr mort (Anopheles stephensi [2]; Table B2, 0.0625 ppm alone) was 0.0 and the KD (Anopheles stephensi [2]; Table B2, 0.0625 ppm alone) was 0.0. The 24 hr mort (Anopheles stephensi [2]; Table B2, 0.125 ppm alone) was 0.0, the 48 hr mort (Anopheles stephensi [2]; Table B2, 0.125 ppm alone) was 0.0 and the KD (Anopheles stephensi [2]; Table B2, 0.125 ppm alone) was 0.0. The 24 hr mort (Anopheles stephensi [2]; Table B2, 0.25 ppm alone) was 0.0, the 48 hr mort (Anopheles stephensi [2]; Table B2, 0.25 ppm alone) was 0.0 and the KD (Anopheles stephensi [2]; Table B2, 0.25 ppm alone) was 0.0. The 24 hr mort (Anopheles stephensi [2]; Table B2, 0.5 ppm alone) was 0.0, the 48 hr mort (Anopheles stephensi [2]; Table B2, 0.5 ppm alone) was 0.0 and the KD (Anopheles stephensi [2]; Table B2, 0.5 ppm alone) was 0.0. It also gave a 24 hr mort (Anopheles stephensi [2]; Table B2, 1 ppm alone) of 20.0, a 48 hr mort (Anopheles stephensi [2]; Table B2, 1 ppm alone) of 40.0 and a KD (Anopheles stephensi [2]; Table B2, 1 ppm alone) of 0.0. The 24 hr mort (Anopheles stephensi [2]; Table B2, 2 ppm alone) was 50.0, the 48 hr mort (Anopheles stephensi [2]; Table B2, 2 ppm alone) was 100.0 and the KD (Anopheles stephensi [2]; Table B2, 2 ppm alone) was 0.0.

For `CCN(CC)c1nc(C)cc(OP(=S)(OC)OC)n1` [pirimiphos-methyl], the 24 hr mort (Anopheles stephensi [2]; Table B3, 0.03125 ppm alone) was 0.0, the 48 hr mort (Anopheles stephensi [2]; Table B3, 0.03125 ppm alone) was 0.0 and the KD (Anopheles stephensi [2]; Table B3, 0.03125 ppm alone) was 0.0. For the same compound, the 24 hr mort (Anopheles stephensi [2]; Table B3, 0.0625 ppm alone) was 0.0, the 48 hr mort (Anopheles stephensi [2]; Table B3, 0.0625 ppm alone) was 0.0 and the KD (Anopheles stephensi [2]; Table B3, 0.0625 ppm alone) was 0.0. It also gave a 24 hr mort (Anopheles stephensi [2]; Table B3, 0.125 ppm alone) of 0.0, a 48 hr mort (Anopheles stephensi [2]; Table B3, 0.125 ppm alone) of 0.0 and a KD (Anopheles stephensi [2]; Table B3, 0.125 ppm alone) of 0.0. For the same compound, the 24 hr mort (Anopheles stephensi [2]; Table B3, 0.25 ppm alone) was 50.0, the 48 hr mort (Anopheles stephensi [2]; Table B3, 0.25 ppm alone) was 50.0 and the KD (Anopheles stephensi [2]; Table B3, 0.25 ppm alone) was 0.0. It also gave a 24 hr mort (Anopheles stephensi [2]; Table B3, 0.5 ppm alone) of 100.0, a 48 hr mort (Anopheles stephensi [2]; Table B3, 0.5 ppm alone) of 100.0 and a KD (Anopheles stephensi [2]; Table B3, 0.5 ppm alone) of 0.0. The 24 hr mort (Anopheles stephensi [2]; Table B3, 1 ppm alone) was 100.0, the 48 hr mort (Anopheles stephensi [2]; Table B3, 1 ppm alone) was 100.0 and the KD (Anopheles stephensi [2]; Table B3, 1 ppm alone) was 10.0. The “knockdown after 1 hour, Alone” value (Anopheles stephensi [2]; Table B10, 0.0625 ppm) was 0.0, the “knockdown after 1 hour, Alone” value (Anopheles stephensi [2]; Table B10, 0.125 ppm) was 0.0 and the “knockdown after 1 hour, Alone” value (Anopheles stephensi [2]; Table B10, 0.25 ppm) was 50.0. The “knockdown after 1 hour, Alone” value (Anopheles stephensi [2]; Table B10, 0.5 ppm) was 100.0 and the “knockdown after 1 hour, Alone” value (Anopheles stephensi [2]; Table B10, 1 ppm) was 100.0.

`CC1(C)[C@H](C(=O)O[C@H](C#N)c2cccc(Oc3ccccc3)c2)[C@@H]1/C=C(\Cl)C(F)(F)F` (racemic) [Lambda-cyhalothrin] was tested, and the “knockdown after 1 hour, Alone” value (Anopheles stephensi [2]; Table B5, 0.025 ppm) was 0, the “knockdown after 1 hour, Alone” value (Anopheles stephensi [2]; Table B5, 0.05 ppm) was 0 and the “knockdown after 1 hour, Alone” value (Anopheles stephensi [2]; Table B5, 0.1 ppm) was 0. The “knockdown after 1 hour, Alone” value (Anopheles stephensi [2]; Table B5, 0.2 ppm) was 40.

With `CNC(=O)c1cc(Cl)cc(C)c1NC(=O)c1cc(Br)nn1-c1ncccc1Cl` [Chlorantraniliprole] the “knockdown after 1 hour, Alone” value (Anopheles stephensi [2]; Table B9, 12.5 ppm) was 0, the “knockdown after 1 hour, Alone” value (Anopheles stephensi [2]; Table B9, 25 ppm) was 0 and the “knockdown after 1 hour, Alone” value (Anopheles stephensi [2]; Table B9, 50 ppm) was 0. For the same compound, the “knockdown after 1 hour, Alone” value (Anopheles stephensi [2]; Table B9, 100 ppm) was 20 and the “knockdown after 1 hour, Alone” value (Anopheles stephensi [2]; Table B9, 200 ppm) was 40.

`CNC(=O)c1cc(C#N)cc(C)c1NC(=O)c1cc(Br)nn1-c1ncccc1Cl` [Cyantraniliprole] was tested, and the “knockdown after 1 hour, Alone” value (Anopheles stephensi [2]; Table B8, 6.25 ppm) was 0, the “knockdown after 1 hour, Alone” value (Anopheles stephensi [2]; Table B8, 12.5 ppm) was 0 and the “knockdown after 1 hour, Alone” value (Anopheles stephensi [2]; Table B8, 25 ppm) was 0. The “knockdown after 1 hour, Alone” value (Anopheles stephensi [2]; Table B8, 50 ppm) was 0, the “knockdown after 1 hour, Alone” value (Anopheles stephensi [2]; Table B8, 100 ppm) was 0 and the “knockdown after 1 hour, Alone” value (Anopheles stephensi [2]; Table B8, 200 ppm) was 20.
